#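 Interpolation was linear, between the two tested concentrations surrounding the appropriate level; five concentrations were tested over 48 hours in 96-well plates. Here, GI50 denotes the concentration required for 50% inhibition of growth.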 Active and inactive are the calls of the source. Cut-off read from the data, not from the text of the source: active = GI50 up to about 1.1 µM and inactive = higher.
# Columns and labels:
# Test in all cases: NCI anticancer screen, dose series, 48 h
# [1] = system: SF-268
# [2] = system: SF-295
# [3] = system: UACC-257
# [4] = system: LOX IMVI
# [5] = system: K562
# [6] = system: HCC 2998
# [7] = system: TK-10
# [8] = system: OVCAR-4
# [9] = system: CCRF-CEM
# [10] = system: MOLT-4
# [11] = system: U-251
# [12] = system: HT-29
# [13] = system: SK-MEL-28
# [14] = system: HCT-15
# [15] = system: UACC-62
# [16] = system: MDA-N
# [17] = system: NCI-H460
# [18] = system: T47D
Compound,GI50 [1],GI50 [2],GI50 [3],GI50 [4],GI50 [5],GI50 [6],GI50 [7],GI50 [8],GI50 [9],GI50 [10],GI50 [11],GI50 [12],GI50 [13],GI50 [14],GI50 [15],GI50 [16],GI50 [17],GI50 [18]
Cc1nnc2n1N=C(c1cc(F)c(Cl)cc1Cl)/C(=C/c1ccc(Cl)cc1)S2,41.8 µM (inactive),13.4 µM (inactive),17 µM (inactive),9.33 µM (inactive),17.5 µM (inactive),13.4 µM (inactive),28.7 µM (inactive),13.7 µM (inactive),19.1 µM (inactive),9.91 µM (inactive),17 µM (inactive),11.7 µM (inactive),38.8 µM (inactive),13.8 µM,15 µM (inactive),15.8 µM (inactive),13.9 µM (inactive),34 µM (inactive)
COC1=CC(=O)c2nc3ccccc3c3ccnc1c23,3.94 µM (inactive),4.48 µM (inactive),5.16 µM (inactive),0.565 µM (active),3.37 µM (inactive),3.1 µM (inactive),19.3 µM (inactive),4.89 µM (inactive),4.4 µM (inactive),4.01 µM (inactive),5.05 µM (inactive),3.24 µM (inactive),19.7 µM (inactive),0.721 µM,1.07 µM (active),0.448 µM (active),0.434 µM (active),5.71 µM (inactive)
Cc1sc2c(c1C)C(=O)c1cccn1-2,> 100 µM (inactive),> 100 µM (inactive),> 100 µM (inactive),64.9 µM (inactive),38.8 µM (inactive),> 100 µM (inactive),> 100 µM (inactive),> 100 µM (inactive),56.1 µM (inactive),38.8 µM (inactive),61.7 µM (inactive),53.8 µM (inactive),> 100 µM (inactive),> 100 µM,62.7 µM (inactive),28.6 µM (inactive),> 100 µM (inactive),39.8 µM (inactive)
CC(C)(C)c1ccc(S(=O)(=O)N2C(c3cccc(C4CC[C@@H](C(=O)O)N4S(=O)(=O)c4ccc(C(C)(C)C)cc4)c3)CC[C@H]2C(=O)O)cc1 (stereo partly drawn),77.8 µM (inactive),45.8 µM (inactive),53 µM (inactive),79.4 µM (inactive),37.5 µM (inactive),47.4 µM (inactive),65.5 µM (inactive),54.8 µM (inactive),33 µM (inactive),33 µM (inactive),38.9 µM (inactive),47.8 µM (inactive),> 100 µM (inactive),43.2 µM,44.9 µM (inactive),55.2 µM (inactive),47.9 µM (inactive),29.9 µM (inactive)
O=C1CCc2cc3c(cc21)CC1(Cc2cc4c(cc2C1)CCCC4)C3,> 100 µM (inactive),33.9 µM (inactive),35.6 µM (inactive),58.5 µM (inactive),23.6 µM (inactive),69.8 µM (inactive),> 100 µM (inactive),29 µM (inactive),72.3 µM (inactive),> 100 µM (inactive),45.9 µM (inactive),34.8 µM (inactive),> 100 µM (inactive),69 µM,39.9 µM (inactive),4.82 µM (inactive),41.4 µM (inactive),32.1 µM (inactive)
C(=C\c1nccs1)/c1cccc(/C=C/c2nccs2)n1,> 50 µM (inactive),> 50 µM (inactive),> 50 µM (inactive),> 50 µM (inactive),> 50 µM (inactive),27.7 µM (inactive),> 50 µM (inactive),> 50 µM (inactive),> 50 µM (inactive),38.4 µM (inactive),34.8 µM (inactive),> 50 µM (inactive),> 50 µM (inactive),> 50 µM,> 50 µM (inactive),> 50 µM (inactive),> 50 µM (inactive),31.2 µM (inactive)

# Reference: ChEMBL document CHEMBL1201862, “PubChem BioAssay data set” (2004)
